The values that follow come from article PMC12172689 (ACS infectious diseases, 2025).

Test [1] has as its system T. gondii TgCDPK1 G128M. Briefly: T. gondii proliferation inhibition, remaining host cell nuclei (DAPI), TgCDPK1 G128M strain. The format is cell-based, Toxoplasma gondii.
Test [2] deals with T. gondii TgMAPKL1 S191Y. The note with it: cited from earlier work.
Test [3] has as its system T. gondii TgMAPKL1 L162Q. Briefly: T. gondii proliferation inhibition, remaining host cell nuclei (DAPI), TgMAPKL1 L162Q strain. In kind it is cell-based, Toxoplasma gondii. The note with it: for pEC50: read-out: TgMAPKL1 L162Q EC50 (95% CI), remaining host cell nuclei, 5 days.
The subject of test [4] is T. gondii TgCDPK1 G128M TgMAPKL1 L162Q. Briefly: T. gondii proliferation inhibition, remaining host cell nuclei (DAPI), double mutant G128M/L162Q. The format is cell-based, Toxoplasma gondii. The note with it: for pEC50: read-out: TgCDPK1 G128M TgMAPKL1 L162Q EC50 (95% CI), double mutant, remaining host cell nuclei, 5 days.
Test [5] relates to T. gondii parent strain. Description: T. gondii proliferation inhibition, remaining host cell nuclei (DAPI), parent strain. The note with it: read-out: parent EC50 (95% CI), 5 days. The format is cell-based, Toxoplasma gondii.
Test [6] has as its system T. gondii with a L162Q substitution in TgMAPKL1. Briefly: T. gondii proliferation inhibition assay, β-galactosidase readout, TgMAPKL1 L162Q strain. In kind it is cell-based, Toxoplasma gondii. The note with it: for pEC50: read-out: TgMAPKL1 L162Q EC50 (95% CI), TgMAPKL1 L162Q strain, β-galactosidase activity, 72 h; for Fold Increase EC50: TgMAPKL1 L162Q vs parent strain, β-galactosidase assay.

The test system of test [7] is T. gondii TgMAPKL1 parental strain (RH, β-galactosidase transgene). Description: T. gondii proliferation inhibition assay, β-galactosidase readout, parent strain. In kind it is cell-based, Toxoplasma gondii. The note with it: read-out: TgMAPKL1 Parental EC50 (95% CI), β-galactosidase activity, 72 h.
In test [8] the test system is T. gondii TgCDPK1 G128T. Briefly: T. gondii proliferation inhibition, remaining host cell nuclei (DAPI), TgCDPK1 G128T strain. The format is cell-based, Toxoplasma gondii. The note with it: read-out: TgCDPK1 G128T EC50 (95% CI), 5 days.
Test [9] deals with T1, TgCDPK1 128G (Toxoplasma gondii, UniProt Q9BJF5).
T1 sequence (Q9BJF5 1-507): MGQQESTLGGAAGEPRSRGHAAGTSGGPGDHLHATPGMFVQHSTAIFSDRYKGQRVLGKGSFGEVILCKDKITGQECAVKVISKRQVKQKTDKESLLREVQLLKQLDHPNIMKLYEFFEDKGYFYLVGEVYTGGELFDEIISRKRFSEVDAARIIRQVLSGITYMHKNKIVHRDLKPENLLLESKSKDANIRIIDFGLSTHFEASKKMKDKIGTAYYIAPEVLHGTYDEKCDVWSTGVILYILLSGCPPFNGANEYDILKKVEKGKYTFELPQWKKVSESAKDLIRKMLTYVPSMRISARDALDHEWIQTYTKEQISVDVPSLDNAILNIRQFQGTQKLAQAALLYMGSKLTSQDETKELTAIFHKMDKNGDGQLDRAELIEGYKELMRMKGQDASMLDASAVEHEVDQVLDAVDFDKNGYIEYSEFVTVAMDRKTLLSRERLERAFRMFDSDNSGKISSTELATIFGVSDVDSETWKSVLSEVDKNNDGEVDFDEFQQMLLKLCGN
Description: TgCDPK1 enzyme inhibition assay (Kinase Glo), wild type glycine gatekeeper. In kind it is biochemical. The note with it: read-out: TgCDPK1 128G IC50, 10 μM ATP. In general terms: In Kinase-Glo more light means more ATP remaining.

The target of test [10] is T2, TgCDPK1 128M (Toxoplasma gondii, UniProt Q9BJF5, G128M).
T2 sequence (Q9BJF5 1-507 G128M): T1 sequence (Q9BJF5 1-507) with G128M
Briefly: TgCDPK1 enzyme inhibition assay (Kinase Glo), methionine gatekeeper mutant. The note with it: for Fold Increase IC50: TgCDPK1 128M vs 128G; for pIC50: read-out: TgCDPK1 128M IC50, introduced methionine gatekeeper, 10 μM ATP. The format is biochemical.

Test [11] deals with RH-strain T. gondii tachyzoites. Briefly: Determination of mutagen concentration killing T. gondii tachyzoites. The note with it: RH-strain tachyzoites expressing β-galactosidase and GFP. The format is cell-based, Toxoplasma gondii.
Test [12] concerns T. gondii cell cycle. The note with it: cited from earlier work.
Setting [13] is: vs parent strain, host cell nuclei assay.

The structures appear in SMILES notation. Numbering of substitutions follows the chain as printed. pEC50, pIC50: −log10 of the molar value.

As usually defined, the pEC50 is the EC50 on a negative log10 scale, so that one unit is a factor of ten. As to `CC(C)(C)n1nc(Cc2cccc3ccccc23)c2c(N)ncnc21` [1-NM-PP1], the “TgCDPK1 G128M fold increase EC50” value in test [1] (setting [13]) is 7.4 fold. Also, the “resistance conferred by TgMAPKL1 S191Y substitution” value in test [2] is “conferred resistance”. The pEC50 in [3] is 7.12; in [4] it was 5.77; in [5] it was 7.72. For the same compound, the “TgMAPKL1 L162Q fold increase EC50” value in test [3] (setting [13]) amounted to 3.9 fold. Besides, the “TgCDPK1 G128M TgMAPKL1 L162Q fold increase EC50” value in test [4] (double mutant vs parent strain, host cell nuclei assay) was found to be 89.5 fold.

On to `CCOc1ccc2cc(-c3nn(CC4CCN(C)CC4)c4ncnc(N)c34)ccc2c1` [BKI-1294], for which the pEC50 in test [6] is 7.18; in test [1] (read-out: TgCDPK1 G128M EC50 (95% CI), remaining host cell nuclei, 5 days) it was 5.82; in test [7], 7.66; in [3] it was 6.35; in test [4] it was 5.49; in test [5] it was 6.64. In test [8], the pEC50 was 5.77.

One may read the pIC50 as −log10 of the IC50, conventionally taken in molar units. Turning to `CCOc1ccc2cc(-c3nn(CC4CCN(C)CC4)c4ncnc(N)c34)ccc2n1` [BKI-1369], in [6], the “Fold Increase EC50” value was 3.20 fold and the pEC50 is 6.92. For the same compound, in test [9], the pIC50 was 8.22. For the same compound, in test [10], the “Fold Increase IC50” value is reported as 2246 fold and the pIC50 was 4.86. For the same compound, the pEC50 in test [7] is 7.42.

For `CCOc1ccc2cc(-c3nn(C(C)(C)C)c(N)c3C(N)=O)cnc2c1` [BKI-1517], the negative logarithm of the EC50 (pEC50) in test [6] was 6.54; in [7] it was 7.10.

As for `CCOc1ccc2cc(-c3nn(C4CCOCC4)c(N)c3C(N)=O)ccc2n1` [BKI-1841], in test [6], the “Fold Increase EC50” value is 2.90 fold and the negative-log EC50 (pEC50) is 6.40. In addition, the pIC50 in test [9] was 7.52. Moreover, in test [10], the “Fold Increase IC50” value came out at 585 fold and the pIC50 was 4.75. For the same compound, the pEC50 in test [7] was 6.85.

For `CCN(N=O)C(N)=O` [ENU, N-ethyl-N-nitrosourea], the “concentration required to kill 70% of a population of tachyzoites” value in [11] was 2 mM.

With `Cc1cccc(-c2[nH]c(C(C)(C)C)nc2-c2ccc3c(c2)OCO3)n1` [SB505124], the “effect on T. gondii cell cycle” value in [12] was “arrested the T. gondii cell cycle”.
